Data: US6451814B1, “Heterocyclic β-3 adrenergic receptor agonists” (Wyeth, priority 2000, dated 2002)
Where “and” joins values, the source holds several entries; their conditions need not be identical. Equal values may be shown once.

Molecular target: T1, human β3-adrenergic receptor (Homo sapiens, UniProt P13945)
T1 construct: Full length β3 AR clones (402 amino acids) containing the last 6 amino acids of hβ3—AR are prepared; expressed in transfected cells; host or cells: CHO cells
Assay: cAMP response (SPA kit) in CHO cells transfected with human β3 adrenergic receptor
Assay type: cell-based
Settings: for EC50: CHO cells expressing human β3-AR, 10^-9 M to 10^-5 M, 30 min at 37° C., cAMP by SPA, read-out: EC50(β3); for IA(β3): maximal response of compound compared to maximal response of isoproterenol at 10^-5 M, CHO cells, human β3-AR

T1 sequence (P13945 whole entry): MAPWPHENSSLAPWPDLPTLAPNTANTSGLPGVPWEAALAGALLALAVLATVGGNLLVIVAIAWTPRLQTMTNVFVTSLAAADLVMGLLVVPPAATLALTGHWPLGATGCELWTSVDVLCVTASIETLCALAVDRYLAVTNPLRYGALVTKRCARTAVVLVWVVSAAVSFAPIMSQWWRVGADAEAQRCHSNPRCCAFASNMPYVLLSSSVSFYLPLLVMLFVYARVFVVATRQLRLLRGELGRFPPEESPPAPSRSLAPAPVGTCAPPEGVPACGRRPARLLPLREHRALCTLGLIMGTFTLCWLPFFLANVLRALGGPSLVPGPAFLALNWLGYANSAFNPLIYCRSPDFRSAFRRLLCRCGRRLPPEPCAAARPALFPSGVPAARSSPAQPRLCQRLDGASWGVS

Row | Compound | EC50 | IA(β3)
1 | 1H-Indole-2-carboxylic Acid (4-{2-[(2S)-2-hydroxy-3-(4-hydroxy-phenoxy)-propylamino]-ethyl}-phenyl)-amide [Example 91] | 51 nM | 1
2 | 4-(4-{2-[(2S)-2-Hydroxy-3-(4-hydroxy-phenoxy)-propylamino]-ethyl}-phenylamino)-piperidine-1-carboxylic Acid 4-fluoro-benzylamide [Example 53] |  | 1.17 and 1.5
3 | 4-[(2S)-2-Hydroxy-3-(2-{4-[-(1-methyl-1H-imidazole-4-sulfonyl)-piperidin-4-ylamino]-phenyl}-ethylamino)-propoxy]-phenol [Example 113] | 130 nM | 1
4 | O=C(NCc1ccc(F)cc1)N1CCC(Nc2ccc(CCNC[C@H](O)COc3ccc(O)cc3)cc2)CC1 [Example 1, 4-(4-{2-[(2S)-2-Hydroxy-3-(4-hydroxy-phenoxy)-propylamino]-ethyl}-phenylamino)-piperidine-1-carboxylic Acid 4-fluoro-benzylamide] | 32 nM and 36 nM and 50 nM | 0.95 and 0.71 and 0.91
5 | CCCCCCCCNC(=O)N1CCC(Nc2ccc(CCNC[C@H](O)COc3ccc(N)nc3)cc2)CC1 [Example 5, 4-(4-{2-[(2S)-3-(6-Amino-pyridin-3-yloxy)-2-hydroxy-propylamino]-ethyl}-phenylamino)-piperidine-1-carboxylic Acid Octylamide] |  | 0.68
6 | COc1cccc(CCNC(=O)N2CCC(Nc3ccc(CCNC[C@H](O)COc4ccc(O)cc4)cc3)CC2)c1 [Example 6, 4-(4-{2-[(2S)-2-Hydroxy-3-(4-hydroxy-phenoxy)-propylamino]-ethyl}-phenylamino)-piperidine-1-carboxylic Acid [2-(3-methoxy-phenyl)-ethyl]-amide] | 106 nM | 1.21
7 | CCCCCCCCNC(=O)N1CCC(N(C(C)=O)c2ccc(CCNC[C@H](O)COc3ccc(O)cc3)cc2)CC1 [Example 8, 4-[Acetyl-(4-{2-[(2S)-2-hydroxy-3-(4-hydroxy-phenoxy)-propylamino]-ethyl}-phenyl)-amino]-piperidine-1-carboxylic Acid Octylamide] | 64 nM | 0.82
8 | CNC(=O)N1CCC(Nc2ccc(CCNC[C@H](O)COc3ccc(O)cc3)cc2)CC1 [Example 9, 4-(4-{2-[(2S)-2-Hydroxy-3-(4-hydroxy-phenoxy)-propylamino]-ethyl}-phenylamino)-piperidine-1-carboxylic Acid Methylamide] |  | 0.85
9 | CCNC(=O)N1CCC(Nc2ccc(CCNC[C@H](O)COc3ccc(O)cc3)cc2)CC1 [Example 10, 4-(4-{2-[(2S)-2-Hydroxy-3-(4-hydroxy-phenoxy)-propylamino]-ethyl}-phenylamino)-piperidine-1-carboxylic Acid Ethylamide] | 43 nM | 0.85
10 | CC(C)NC(=O)N1CCC(Nc2ccc(CCNC[C@H](O)COc3ccc(O)cc3)cc2)CC1 [Example 11] | 90 nM | 1.05
11 | O=C(NCCCC1CCCC1)N1CCC(Nc2ccc(CCNC[C@H](O)COc3ccc(O)cc3)cc2)CC1 [Example 12, 1-4-(4-{2-[(2S)-2-Hydroxy-3-(4-hydroxy-phenoxy)-propylamino]-ethyl}-phenylamino)-piperidine-1-carboxylic Acid (3-cyclopentyl-propyl)-amide] | 50 nM | 
12 | O=C(NCc1ccc(Cl)cc1Cl)N1CCC(Nc2ccc(CCNC[C@H](O)COc3ccc(O)cc3)cc2)CC1 [Example 20, 4-(4-{2-[(2S)-2-Hydroxy-3-(4-hydroxy-phenoxy)-propylamino]-ethyl}-phenylamino)-piperidine-1-carboxylic Acid 2,4-dichloro-benzylamide] |  | 0.91
13 | O=C(NCc1ccc(Cl)c(Cl)c1)N1CCC(Nc2ccc(CCNC[C@H](O)COc3ccc(O)cc3)cc2)CC1 [Example 21, 4-(4-{2-[(2S)-2-Hydroxy-3-(4-hydroxy-phenoxy)-propylamino]-ethyl}-phenylamino)-piperidine-1-carboxylic Acid 3,4-dichloro-benzylamide] | 30 nM | 1
14 | CCCCCCCCNC(=O)N1CCC(Nc2ccc(CCNC[C@H](O)c3cccc(Cl)c3)cc2)CC1 [Example 36, 4-(4-{2-[(2R)-2-(3-Chloro-phenyl)-2-hydroxy-ethylamino]-ethyl}-phenylamino)-piperidine-1-carboxylic Acid Octylamide] |  | 0.77
15 | CCCCCCNC(=O)N1CCC(S(=O)(=O)c2ccc(CCNC[C@H](O)COc3ccc(O)cc3)cc2)CC1 [Example 44, 4-(4-{2-[(2S)-2-Hydroxy-3-(4-hydroxy-phenoxy)-propylamino]-ethyl}-benzenesulfonyl)-piperidine-1-carboxylic Acid Hexylamide] | 36 nM | 0.99
16 | O=C(NCc1ccc(F)cc1)N1CCC(S(=O)(=O)c2ccc(CCNC[C@H](O)COc3ccc(O)cc3)cc2)CC1 [Example 45, 4-(4-{2-[(2S)-2-Hydroxy-3-(4-hydroxy-phenoxy)-propylamino]-ethyl}-benzenesulfonyl)-piperidine-1-carboxylic Acid 4-fluoro-benzylamide] | 64 nM | 1.07
17 | O=C(NCC1(c2ccccc2)CCCC1)N1CCC(S(=O)(=O)c2ccc(CCNC[C@H](O)COc3ccc(O)cc3)cc2)CC1 [Example 46, 4-(4-{2-[(2S)-2-Hydroxy-3-(4-hydroxy-phenoxy)-propylamino]-ethyl}-benzenesulfonyl)-piperidine-1-carboxylic Acid (1-phenyl-cyclopentylmethyl)-amide] | 162 nM | 0.82
18 | CS(=O)(=O)Nc1cc([C@@H](O)CNCCc2ccc(NC3CCN(C(=O)N4CCC(C(=O)O)CC4)CC3)cc2)ccc1O [Example 52, 1-[4-(4-{2-[(2R)-2-Hydroxy-2-(4-hydroxy-3-methanesulfonylamino-phenyl)-ethylamino]-ethyl}-phenylamino)-piperidine-1-carbonyl]-piperidine-4-carboxylic Acid] | 69 nM | 0.82
19 | CCCCCCCCNC(=O)N1CCC(Oc2ccc(CCNC[C@H](O)COc3ccc(O)cc3)cc2)CC1 [Example 54, 4-[4-(2-{[(2S)-2-Hydroxy-3-(4-hydroxyphenoxy)propyl]amino}ethyl)phenoxy]-N-octyl-1-piperidinecarboxamide] | 1010 nM and 398 nM and 400 nM | 0.7 and 0.78 and 0.51
20 | O=C(NCc1ccc(F)cc1)N1CCC(Oc2ccc(CCNC[C@H](O)COc3ccc(O)cc3)cc2)CC1 [Example 56, 4-(4-{2-[(2S)2-Hydroxy-3-(4-hydroxy-phenoxy)-propylamino]-ethyl}-phenoxy)-piperidine-1-carboxylic Acid 4-fluoro-benzylamide] | 52 nM | 0.84
21 | O=C(O)COc1ccc(NC(=O)N2CCC(Nc3ccc(CCNC[C@H](O)COc4ccc(O)cc4)cc3)CC2)cc1 [Example 58, (4-{[4-(4-{2-[(2S)-2-Hydroxy-3-(4-hydroxy-phenoxy)-propylamino]-ethyl}-phenylamino)-piperidine-1-carbonyl]-amino}-phenoxy)-acetic Acid] | 320 nM | 1.61
22 | O=C(O)C1CCN(C(=O)N2CCC(Nc3ccc(CCNC[C@H](O)COc4ccc(O)cc4)cc3)CC2)CC1 [Example 62, 1-[4-(4-{2-[(2S)-2-Hydroxy-3-(4-hydroxy-phenoxy)-propylamino]-ethyl}-phenylamino)-piperidine-1-carbonyl]-piperidine-4-carboxylic acid] | 134 nM | 1.05
23 | CCCCCCCCNC(=O)N1CCC(Nc2ccc(CCNC[C@H](O)COc3ccc(O)c(NS(C)(=O)=O)c3)cc2)CC1 [Example 66, 4-(4-{2-[(2S)-2-Hydroxy-3-(4-hydroxy-3-methanesulfonylamino-phenoxy)-propylamino]-ethyl}-phenylamino)-piperidine-1-carboxylic Acidoctylamide] | 200 nM | 0.99
24 | CCCCCCCCNC(=O)N1CCC(Nc2ccc(OCCNC[C@H](O)COc3ccc(O)cc3)cc2)CC1 [Example 73, 4-(4-{2-[(2S)-2-Hydroxy-3-(4-hydroxy-phenoxy)-propylamino]-ethoxy}-phenylamino)-piperidine-1-carboxylic Acid Octylamide] | 70 nM | 0.8
25 | COC(=O)[C@@H]1CCCN1C(=O)N1CCC(Nc2ccc(CCNC[C@H](O)c3ccc(O)c(NS(C)(=O)=O)c3)cc2)CC1 [Example 77, 1-[[4-[[4-[2-[[(2R)-2-Hydroxy-2-[4-hydroxy[(methylsulfonyl)amino]phenyl]ethyl]amino]ethyl]phenyl]amino]-1-piperidinyl]carbonyl]-L-proline, Methyl Ester] | 28 nM | 0.99
26 | CCOC(=O)C1CCCN(C(=O)N2CCC(Nc3ccc(CCNC[C@H](O)c4ccc(O)c(NS(C)(=O)=O)c4)cc3)CC2)C1 (stereo partly drawn) [Example 78, 1-[[4-[[4-[2-[[(2R)-2-Hydroxy-2-[4-hydroxy-3-[(methylsulfonyl)amino]phenyl]ethyl]amino]ethyl]phenyl]amino]-1-piperidinyl]carbonyl]-3-piperidine Carboxylic Acid, Ethyl Ester] |  | 1
27 | COc1cccc(CNC(=O)N2CCC(Nc3ccc(CCNC[C@H](O)COc4ccc(O)cc4)cc3)CC2)c1 [Example 79, 4-(4-{2-[(2S)-2-Hydroxy-3-(4-hydroxy-phenoxy)-propylamino]-ethyl}-phenylamino)-piperidine-1-carboxylic acid 3-methoxy-benzylamide] | 41 nM | 0.8
28 | O=C(NCc1ccc(F)cc1F)N1CCC(Nc2ccc(CCNC[C@H](O)COc3ccc(O)cc3)cc2)CC1 [Example 80, 4-(4-{2-[(2S)-2-Hydroxy-3-(4-hydroxy-phenoxy)-propylamino]-ethyl}-phenylamino)-piperidine-1-carboxylic acid 2,4-difluoro-benzylamide] |  | 0.84
